# According to patent US20210308101A1, “METHODS OF TREATING FIBROMYALGIA” (Aptinyx Inc., priority 2019, published 2021):
# How the values were obtained:
# [1] = system: subjects with fibromyalgia; assay: Quantitative Sensory Testing, all outcomes; format: in vivo, human
# From the text: Other efficacy assessments, as used herein, include “Multi-Modal Automated Sensory Testing” (MAST) Pressure Pain Sensitivity, “Cuff Algometry,” and “Visual Stimulation Task.”
# The multi-modal automated sensory testing (MAST) system was used to measure localized pressure sensitivity at an asymptomatic, neutral body site, the thumbnail. The MAST system is a nonsignificant-risk investigational device that applies a computer-controlled mechanical stimulation at precisely controlled intensity levels and durations. The validity in the measurement of centrally-mediated pain sensitivity has been discussed extensively. The MAST system delivered an ascending series of computer-controlled, 5-second pressures at 20-second intervals (with 20% jitter) to the subject's thumbnail bed, beginning at 0.25 to 0.5 kg/cm^2 and increasing in steps of 0.25 to 0.50 kg/cm^2. Pain intensity was rated after each pressure on a 0 to 100 NRS. Testing was terminated when the first of 3 possible stop conditions were met: 1) subject reached her personal pain tolerance and requested to stop the test, 2) subject reported a pain intensity rating of >80, or 3) the maximum pressure of 10 kg/cm^2 was delivered. A regression model was used fit the stimulus-response data obtained from this procedure and interpolate Pain50, defined as the pressure intensity that evokes a moderate level of suprathreshold pressure pain (i.e., 50/100). Additional derived variables included: 1) Pressure pain threshold, defined as the first pressure in a series of at least 2 consecutive pressures that elicited a NRS pain rating >0; 2) slope of the stimulus-response function as a measure of the rate of pain increase; and 3) pressure pain tolerance, defined as the last pressure recorded in the stimulus response profile. […]
# Localized pressure pain sensitivity was also measured bilaterally at 3 additional body regions: trapezius, wrist, and patella. […] Sensitivity was measured using a digital algometer with a 1-cm^2 flat rubber probe. […]
# Large volume, deep tissue pressure sensitivity was assessed by cuff algometry. […]
# [2] = system: resting state network connectivity; assay: rs-fcMRI group independent component analysis (DMN, SLN, DAN); format: in vivo, human
# Protocol: In order to quantify intrinsic brain connectivity, rs-fcMRI data were analyzed with both dual-regression ICA and seed-voxel approaches. These approaches are complementary, as they quantify intrinsic brain connectivity on a network level (dual regression probabilistic ICA) and a more specific region-focused level (seed-voxel).
# Resting state functional connectivity MRI data were preprocessed and analyzed using statistical parametric mapping software package Version 12, the CONN functional connectivity toolbox, and the GIFT toolbar, all running on MATLAB Version 9.2 or later. Upon collection of rs-fcMRI data, physiological artifacts were first removed using a custom MATLAB algorithm and slice-time corrected using Functional Magnetic Resonance Imaging of the Brain Software Library software. Preprocessing steps included motion correction, realignment, registration, normalization to standard Montreal Neurological Institute template, and smoothing (full width at half maximum Gaussian kernel of 6 or 8 mm).
# Group ICA was performed using the GIFT toolbar and component estimates were validated using Icasso software for 10 iterations. The number of independent components was limited to 25 to minimize splitting into subcomponents. Subject-specific spatial maps and time courses were back reconstructed using spatiotemporal regression and dual regression in GIFT. As for seed-based analyses, individual maps were passed onto group second level analyses in statistical parametric mapping, where differences in resting state network connectivity between placebo and drug images were performed.
# Several analyses were conducted with the fMRI resting state and task data. Results were assessed by: 1) a primary analysis, where a finding was deemed significant with a corrected cluster level p<0.05, derived from an uncorrected voxel-wise p<0.001, and 2) an exploratory analysis, where a finding was deemed significant with an uncorrected voxel-wise p<0.005 and having a cluster greater than or equal to 80 contiguous voxels. Results that met significance in the primary analyses had connectivity values extracted and imported into SPSS v25 where paired t-tests were performed to assess for potential outliers contributing to the finding. Remaining data were then correlated with clinical measures using parametric bivariate Pearson correlations. Results were deemed significant at p<0.05.
# Group ICA was performed (n=18) for the resting state scan, and the network components for the Default Mode Network, the Salience Network, and the Dorsal Attention Network were computed. […] With the exploratory analyses, resting state connectivity was decreased from the placebo visit to the NYX-2925 200 mg visit (placebo >NYX-2925 200 mg) between the Default Mode Network and the left mid cingulate cortex. […] In exploratory analyses, resting state functional connectivity was decreased from the placebo visit to the NYX-2925 200 mg visit (placebo >NYX-2925 200 mg) between the Salience Network and the right putamen/thalamus. Here, augmented connectivity between Salience Network, a network comprised of pronociceptive regions, and putamen and thalamus, regions also involved in nociception, was decreased following treatment with NYX-2925.
# [3] = exploratory, placebo visit to NYX-2925 200 mg visit
smiles,measurement,setting,value
"CC(C)C(=O)N1CCC[C@]12CN([C@H](C(N)=O)[C@@H](C)O)C2=O [NYX-2925, (2S, 3R)-3-hydroxy-2-((R)-5-isobutyryl-1-oxo-2,5-diazaspiro[3.4]octan-2-yl)butanamide]",effects on QST relative to placebo,[1]; NYX-2925 20 mg,no significant or marginal effects
same,differences on QST between doses,[1]; NYX-2925 20 mg versus NYX-2925 200 mg,no significant or marginal differences
same,"effects on QST outcomes relative to placebo, other than right trapezius threshold",[1]; NYX-2925 200 mg,no additional significant or marginal effects
same,connectivity Default Mode Network - left mid cingulate cortex,[2]; [3],decreased
same,connectivity Salience Network - right putamen/thalamus,[2]; [3],decreased
same,Salience Network connectivity,[2]; primary analysis,No results met significance
same,Default Mode Network connectivity,"[2]; primary analysis, n=18",No results met significance
same,Dorsal Attention Network connectivity,[2]; primary and exploratory analyses,no significant results
